These results are taken from patent US12171821B2, “Toxoplasma gondii vaccine” (priority 2018, dated 2024).

Molecules are shown by their SMILES. “And” between values parts separate entries of the source, which are not always exact repeats. Equal entries are not always repeated.

Test [1] concerns T. gondii ME49 bradyzoites. Briefly: Merozoite markers GRA11B/BRP1, immunofluorescence, infected cat intestinal monolayers. In kind it is cell-based, Toxoplasma gondii. The conditions noted are these: 200 μM fatty acid, 5 days of infection. The procedure:
FIGS. 6A-B. Quantification of merozoites in cat tissue culture. A) Cat intestinal organoids were disassociated by trypsin then grown as monolayers on glass slides. Slides were divided into three different groups: not supplemented with fatty acid, supplemented with 200 μM oleic acid or supplemented 200 μM linoleic acid. Monolayers were infected with T. gondii MEM bradyzoites purified from brains of chronic infected mice at a 1:10 MOI. Five days after infection, staining for GRA11B and BRP1 along with DAPI, allowed the percentage of vacuoles positive for GRA11B and BRP1out of the total vacuoles was determined. Total number of parasitophorous vacuoles were counted by positive DAPI staining and confirmed by morphology with DIC. At least 50 parasitophorous vacuoles were counted per replicate. Three biological replicates were counted and on average 35% of the total vacuoles were positive far both GRA11B and BRP1 in the linoleic acid supplemented monolayers. *p-value=0.0126 with N=3 by two-tailed unpaired t test. Straining for both BRP1 and GRA11B was used to ensure that merozoite stages were counted. […] BRP1 is a rhoptry protein that was initially found in bradyzoites; however, it is also expressed in merozoite. […]

Test [2] has as its system T. gondii ME49 bradyzoites. Briefly: qPCR of SAG1, GRA11B, TUB1A on cDNA of infected cat intestinal monolayers. In kind it is cell-based, Toxoplasma gondii. Here is the method:
FIGS. 6A-B. Quantification of merozoites in cat tissue culture. A) Cat intestinal organoids were disassociated by trypsin then grown as monolayers on glass slides. Slides were divided into three different groups: not supplemented with fatty acid, supplemented with 200 μM oleic acid or supplemented 200 μM linoleic acid. Monolayers were infected with T. gondii MEM bradyzoites purified from brains of chronic infected mice at a 1:10 MOI. Five days after infection, staining for GRA11B and BRP1 along with DAPI, allowed the percentage of vacuoles positive for GRA11B and BRP1out of the total vacuoles was determined. Total number of parasitophorous vacuoles were counted by positive DAPI staining and confirmed by morphology with DIC. At least 50 parasitophorous vacuoles were counted per replicate. Three biological replicates were counted and on average 35% of the total vacuoles were positive far both GRA11B and BRP1 in the linoleic acid supplemented monolayers. *p-value=0.0126 with N=3 by two-tailed unpaired t test. Straining for both BRP1 and GRA11B was used to ensure that merozoite stages were counted. […] BRP1 is a rhoptry protein that was initially found in bradyzoites; however, it is also expressed in merozoite. B) Cat intestinal monolayers were grown as described in panel A, except monolayers were quenched by TRIzol 5 days post-infection, RNA was extracted, and cDNA was synthesized using an oligo (dT) primer to amplify mRNA, Expression of SAG1 and GRA11B were quantified by qPCR and the fold change calculated in comparison with uninfected cells. TUB1A was used to normalize gene expression across samples.
Real-time PCR on ileum cDNA. Z-DNA binding protein deletion mice ice with and without delta-6-desaturase inhibitor treatment were euthanized 7 days post infection. The ileum of each mouse was removed and homogenized in 1 mL of TRIzol. Total RNA was isolated according to manufacturer's protocol (Invitrogen) and treated with amplification grade Dnase I. cDNA was generated using the Invitrogen SuperScript III First-Strand Synthesis kit with random hexamer primers. GRA11B and SAG1 were used as markers of sexual and asexual stages, respectively. The T. gondii housekeeping gene TUB1A was used to normalize target gene expression. Real-time quantitative PCR was performed using Bio-Rad iTaq Universal SYBR Green Supermix on 311 an Applied Biosystems StepOnePlus Real-Time PCR system. The efficiency of each primer set was calculated from the slope of a 1:10 dilution standard curve of tachyzoite gDNA, where E=10^(−1/slope). The Pfaffl method (Pfaffl, 2001), which accounts for differences in efficiencies, was then used to calculate the relative gene expression of GRA11B and SAG1 per sample, in triplicate. Only wells with one melt curve temperature were used, indicating a single product. Primer sequences were as follows: […]
(Real-time PCR tracks product formation cycle by cycle.)

The mark [3] stands for this setting: cat intestinal monolayers cDNA, biological replicates 1 and 2.
Setting [4] is: cat intestinal monolayers cDNA, biological replicates 1 and 2, wells 1-3.

In the case of `CCCCC/C=C\C/C=C\CCCCCCCC(=O)O` [linoleic acid], in test [1], the “parasites undergoing sexual development / merozoite stage markers GRA11B and BRP1 (staining)” value was “commonly seen only with linoleic acid supplementation”. Further, in test [2] (setting [3]), the “GRA11B Ct mean” value is 26.44 and 27.75; the “SAG1 Ct mean” value was 19.15 and 19.99. Further, in test [2] (setting [4]), the “GRA11B raw Ct values” is 26.53 and 27.67 and 26.34 and 27.82 and 26.44 and 27.77; the “SAG1 raw Ct values” is 19.09 and 20.09 and 19.19 and 19.93 and 19.16 and 19.95. Moreover, in test [2] (cat intestinal monolayers, 200 μM, 5 days post-infection), the “GRA11B expression by qPCR (fold change versus uninfected cells, normalized to TUB1A)” value is on record as “significantly more abundant”.
